Results on ten molecules are retold here after US11702429B2, “mTORC modulators and uses thereof” (Aeovian Pharmaceuticals, Inc., priority 2019, dated 2023).

Read-outs that look alike come from different tables or passages of the source.

One experiment deals with T1, mTORC2 (Homo sapiens, UniProt P42345+P62942).
T1 construct: endogenous in cells; host or cells: PC3 cells (human prostate adenocarcinoma)
Kind of experiment: Inhibition assay for mTORC2: phosphorylation of pAkt at Ser473, AlphaLISA in PC3 cells. The experiment is classed as cell-based. Conditions: for IC50: read-out: pIC50 mTORC2 (converted). Here is the method: (§1) The IC50s of the inhibition of mTORC1 and mTORC2 were determined in vitro by determining the phosphorylation of pS6K at position Thr389 (mTORC1 inhibition) and pAkt at Ser473 (mTORC2 inhibition). In vitro studies were performed with AlphaLISA® technology using PC3 cells (Prostate Adenocarcinoma; Human (Homo sapiens)). The cells were seeded in 96 well plates and were treated for 24 hours with the different compounds. […] All analysis were performed using GraphPad Prism 7.0 (GraphPad Software, San Diego, USA).
A general note: Alpha assays give light when donor and acceptor beads are brought close together.

For another experiment, the target named is T2, mTORC1 (Homo sapiens, UniProt P42345+P62942).
T2 construct: endogenous in cells; host or cells: PC3 cells (human prostate adenocarcinoma)
Kind of experiment: Inhibition assay for mTORC1: phosphorylation of pS6K at Thr389, AlphaLISA in PC3 cells. The experiment is classed as cell-based. The note with it: for IC50: read-out: pIC50 mTORC1 (converted). Here is the method: as §1

[1] abbreviates: PC3 cells, treated 24 hours, pAkt Ser473, AlphaLISA, C16 diastereomer mixtures not separated.
Setting [2] is: PC3 cells, treated 24 hours, pS6K Thr389, AlphaLISA, C16 diastereomer mixtures not separated.

T1 sequence (P62942 2-108 limits assumed, other chains not shown): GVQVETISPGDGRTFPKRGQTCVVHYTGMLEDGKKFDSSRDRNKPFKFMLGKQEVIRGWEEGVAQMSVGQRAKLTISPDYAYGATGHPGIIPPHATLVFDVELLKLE

For `CO[C@@H]1C[C@H](C[C@@H](C)[C@@H]2CC(=O)[C@H](C)/C=C(\C)[C@@H](O)[C@@H](OC)C(=O)[C@H](C)C[C@H](C)/C=C/C=C/C=C(\C)C(OC[C@H](O)c3ccccc3)C[C@@H]3CC[C@@H](C)[C@@](O)(O3)C(=O)C(=O)N3CCCCC3C(=O)O2)CC[C@H]1OCCO` (some centres unmarked) [Compound 88], at mTORC2 (setting [1]), the “pIC50 mTORC2” value is recorded as “B (5 to 6 as B)”. In addition, the “pIC50 mTORC1” value on mTORC1 (setting [2]) is listed as “A (pIC50 for mTORC1 of >9.5 as A)”.
Consider `COC1CC(CC(C)C2CC(=O)C(C)C=C(C)C(O)C(OC)C(=O)C(C)CC(C)C=CC=CC=C(C)C(OCCO)CC3CCC(C)C(O)(O3)C(=O)C(=O)N3CCCCC3C(=O)O2)CCC1OCCCN1CCOCC1C` (mixture of isomers) [Compound 2], for which the “pIC50 mTORC2” value on mTORC2 (setting [1]) was “A (PIC50 for mTORC2 of <5 as A)”. For the same molecule, the “pIC50 mTORC1” value at mTORC1 (setting [2]) is reported as “A (pIC50 for mTORC1 of >9.5 as A)”.
Turning to `COC1C[C@@H]2CC[C@@H](C)[C@@](O)(O2)C(=O)C(=O)N2CCCCC2C(=O)O[C@H]([C@H](C)C[C@@H]2CC[C@@H](OC(=O)NCCc3c[nH]cn3)[C@H](OC)C2)CC(=O)[C@H](C)/C=C(\C)[C@@H](O)[C@@H](OC)C(=O)[C@H](C)C[C@H](C)/C=C/C=C/C=C/1C` (some centres unmarked) [Compound 364], the results for the IC50 at mTORC2 and at mTORC1 were less than 1000 nM and less than 0.316 nM, respectively.
The matching figures for `CO[C@@H]1C[C@H](C[C@@H](C)[C@@H]2CC(=O)[C@H](C)/C=C(\C)[C@@H](O)[C@@H](OC)C(=O)[C@H](C)C[C@H](C)/C=C/C=C/C=C(\C)C(OC[C@@H](O)c3ccccc3)C[C@@H]3CC[C@@H](C)[C@@](O)(O3)C(=O)C(=O)N3CCCCC3C(=O)O2)CC[C@H]1O` (some centres unmarked) [Compound 217]: 1000 to 10000 nM and less than 0.316 nM.
With `COC1C[C@@H]2CC[C@@H](C)[C@@](O)(O2)C(=O)C(=O)N2CCCCC2C(=O)O[C@H]([C@H](C)C[C@@H]2CC[C@@H](OCCN3CCC(O)CC3)[C@H](OC)C2)CC(=O)[C@H](C)/C=C(\C)[C@@H](O)[C@@H](OC)C(=O)[C@H](C)C[C@H](C)/C=C/C=C/C=C/1C` (some centres unmarked) [Compound 353], the figures for the IC50 on mTORC2 and at mTORC1 were less than 1000 nM and less than 0.316 nM, respectively.
Turning to `CO[C@@H]1C[C@H](C[C@@H](C)[C@@H]2CC(=O)[C@H](C)/C=C(\C)[C@@H](O)[C@@H](OC)C(=O)[C@H](C)C[C@H](C)/C=C/C=C/C=C(\C)C(OCC(C)(C)O)C[C@@H]3CC[C@@H](C)[C@@](O)(O3)C(=O)C(=O)N3CCCCC3C(=O)O2)CC[C@H]1O` (some centres unmarked) [Compound 216], the IC50 on mTORC2 is 1000 to 10000 nM; on mTORC1, 0.316 to 3.16 nM.
The corresponding values for `COC1C[C@@H]2CC[C@@H](C)[C@@](O)(O2)C(=O)C(=O)N2CCCCC2C(=O)O[C@H]([C@H](C)C[C@@H]2CC[C@@H](OC(=O)NCCN3CCOCC3)[C@H](OC)C2)CC(=O)[C@H](C)/C=C(\C)[C@@H](O)[C@@H](OC)C(=O)[C@H](C)C[C@H](C)/C=C/C=C/C=C/1C` (some centres unmarked) [Compound 336] are less than 1000 nM and less than 0.316 nM.
As to `CO[C@@H]1C[C@H](C[C@@H](C)[C@@H]2CC(=O)[C@H](C)/C=C(\C)[C@@H](O)[C@@H](OC)C(=O)[C@H](C)C[C@H](C)/C=C/C=C/C=C(\C)C(OCCc3ccccc3)C[C@@H]3CC[C@@H](C)[C@@](O)(O3)C(=O)C(=O)N3CCCCC3C(=O)O2)CC[C@H]1O` (some centres unmarked) [Compound 211], the IC50 on mTORC2 is less than 1000 nM; at mTORC1, less than 0.316 nM.
Turning to `CO[C@@H]1C[C@H](C[C@@H](C)[C@@H]2CC(=O)[C@H](C)/C=C(\C)[C@@H](O)[C@@H](OC)C(=O)[C@H](C)C[C@H](C)/C=C/C=C/C=C(\C)C(OC[C@@H](C)O)C[C@@H]3CC[C@@H](C)[C@@](O)(O3)C(=O)C(=O)N3CCCC[C@H]3C(=O)O2)CC[C@H]1OCCO` (mixture of isomers) [Compound 49], the IC50 was more than 10000 nM at mTORC2 (setting [1]) and 0.316 to 3.16 nM at mTORC1 (setting [2]).
In the case of `COC1C[C@@H]2CC[C@@H](C)[C@@](O)(O2)C(=O)C(=O)N2CCCCC2C(=O)O[C@H]([C@H](C)C[C@@H]2CC[C@@H](OC(=O)NCCN3CCCCC3)[C@H](OC)C2)CC(=O)[C@H](C)/C=C(\C)[C@@H](O)[C@@H](OC)C(=O)[C@H](C)C[C@H](C)/C=C/C=C/C=C/1C` (some centres unmarked) [Compound 365], the IC50 was less than 1000 nM on mTORC2 and less than 0.316 nM at mTORC1.
